Test results from the supplement of paper PMC10307832.

How the values were obtained:
Assay in all cases: relative viability (nuclei count vs DMSO), 5 days (fraction); higher = more cells survive
XMD8-85 + Navitoclax = compound: CN1CCN(CC1)C2=CC(=C(C=C2)NC3=NC=C4C(=N3)N(C5=CC=CC=C5C(=O)N4C)C)OC [XMD8-85] + CC1(C)CCC(c2ccc(Cl)cc2)=C(CN2CCN(c3ccc(C(=O)NS(=O)(=O)c4ccc(N[C@H](CCN5CCOCC5)CSc5ccccc5)c(S(=O)(=O)C(F)(F)F)c4)cc3)CC2)C1 [Navitoclax] (partner 0.5 µM)
How it was run: (§1)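 Lung cancer cell lines, seeded in 1536-well plates, were treated the following day by pin tool with a single drug or with five library-drug doses (not always all listed) in √10 steps on top of a fixed anchor-drug dose. Cells were fixed and nuclei stained in one step after 5 days, and nuclei were counted. Relative viability is the nuclei count for treated wells divided by that for vehicle wells, reported as medians of duplicate plates.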

XMD8-85 + Foretinib = compound: CN1CCN(CC1)C2=CC(=C(C=C2)NC3=NC=C4C(=N3)N(C5=CC=CC=C5C(=O)N4C)C)OC [XMD8-85] + COc1cc2c(Oc3ccc(NC(=O)C4(C(=O)Nc5ccc(F)cc5)CC4)cc3F)ccnc2cc1OCCCN1CCOCC1 [Foretinib] (partner 0.25 µM)
How it was run: as §1

4EGI-1 = compound: O=C(O)C(Cc1ccccc1[N+](=O)[O-])=NNc1nc(-c2ccc(Cl)c(Cl)c2)cs1 (mixture of isomers) [4EGI-1]
How it was run: (§2)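 Five library-drug doses, separated by factors of √10, were pinned into 1536-well plates holding lung cancer cell lines after an overnight stay at 37 °C. Cells were fixed, permeabilised and Hoechst-stained in one step after 5 days without medium change, then imaged at 4×. Viability compares treated-well with vehicle-well nuclei, counted in MetaXpress, as a median across plates. Passing plates had control CV below 25% and at least one doubling.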

XMD8-85 = compound: CN1CCN(CC1)C2=CC(=C(C=C2)NC3=NC=C4C(=N3)N(C5=CC=CC=C5C(=O)N4C)C)OC [XMD8-85]
How it was run: as §2

Row | Cell Line | relative viability (XMD8-85 + Navitoclax; first compound 0.253 µM) | relative viability (XMD8-85 + Navitoclax; first compound 0.8 µM) | relative viability (XMD8-85 + Navitoclax; first compound 2.53 µM) | relative viability (XMD8-85 + Navitoclax; first compound 8 µM) | relative viability (XMD8-85 + Foretinib; first compound 0.08 µM) | relative viability (XMD8-85 + Foretinib; first compound 0.253 µM) | relative viability (XMD8-85 + Foretinib; first compound 0.8 µM) | relative viability (XMD8-85 + Foretinib; first compound 2.53 µM) | relative viability (XMD8-85 + Foretinib; first compound 8 µM) | relative viability (4EGI-1; 0.5 µM) | relative viability (4EGI-1; 1.581 µM) | relative viability (4EGI-1; 5 µM) | relative viability (4EGI-1; 15.81 µM) | relative viability (4EGI-1; 50 µM) | relative viability (XMD8-85; 0.08 µM) | relative viability (XMD8-85; 0.253 µM) | relative viability (XMD8-85; 0.8 µM) | relative viability (XMD8-85; 2.53 µM) | relative viability (XMD8-85; 8 µM) | relative viability (XMD8-85 + Navitoclax; first compound 0.08 µM)
1 | EPLC-272H | 1.3 | 1.08 | 1.05 | 0.679 | 0.619 | 0.717 | 0.751 | 0.47 | 0.436 | 1.07 | 0.659 | 1.12 | 0.713 | 0.235 | 0.937 | 1.07 | 0.885 | 0.876 | 0.608 | –
2 | Calu-6 | 0.953 | 0.911 | 1.02 | 0.668 | 0.858 | 0.948 | 0.879 | 0.804 | 0.674 | 1.03 | 0.887 | 1.1 | 0.951 | 0.618 | 1.02 | 0.962 | 1.08 | 0.96 | 0.834 | 0.93
3 | NCI-H1915 | 0.817 | 0.791 | 0.771 | 0.622 | 1.16 | 1.1 | 1.16 | 1.02 | 0.83 | 1.02 | 0.738 | 1.05 | 0.972 | 0.633 | 0.975 | 1 | 1.01 | 1.03 | 0.883 | 0.859
4 | LXF-289 | 0.867 | 0.951 | 0.974 | 0.811 | 0.887 | 0.997 | 0.993 | 0.977 | 0.812 | 1.03 | 1.01 | 0.98 | 0.864 | 0.573 | 0.996 | 1.05 | 0.997 | 1.06 | 0.979 | 0.831
5 | LK-2 | 0.915 | 0.883 | 0.772 | 0.699 | – | 1.05 | 1.01 | 0.554 | 0.389 | 1.11 | – | 1.29 | 1.08 | 0.854 | 0.97 | 1.08 | 0.928 | 0.67 | 0.616 | 0.74
6 | H3255 | 0.581 | 0.45 | 0.484 | 0.284 | 1.03 | 0.917 | 0.892 | 0.931 | 0.627 | 1.1 | 0.784 | 1.01 | 0.801 | 0.981 | 1.1 | 0.929 | 0.882 | 0.916 | 0.674 | 0.519
7 | EBC-1 | 0.375 | 0.402 | 0.296 | 0.268 | 0.104 | 0.0951 | 0.112 | 0.0978 | 0.0972 | 1.11 | 1.05 | 1.11 | 0.726 | 0.296 | 0.944 | 1.06 | 0.937 | 0.816 | 0.386 | 0.437
8 | NCI-H2087 | 1.01 | 1.17 | 1.05 | 0.772 | 1.34 | 1.11 | 1.32 | 1.15 | 0.682 | 1.24 | 1.05 | 0.975 | 0.694 | 0.256 | 1.07 | 0.984 | 1.09 | 1.05 | 0.811 | 1.06
9 | EMC-BAC-2 | 1.23 | 1.16 | 1.13 | 1.16 | 1.1 | 1.05 | 0.975 | 0.965 | 0.754 | 1.07 | – | 1.07 | 0.976 | 0.538 | 1.04 | 1.03 | 0.956 | 1.01 | 0.778 | 1.12
10 | NCI-H2126 | 0.935 | 0.899 | 0.897 | 0.839 | 1.07 | 1.03 | 1.13 | 0.996 | 0.935 | 1.05 | 0.937 | 1.05 | 0.837 | 0.79 | 0.96 | 1.02 | 1.03 | 1.11 | 0.821 | 0.946
11 | A549 | 1.24 | 1.28 | 1.19 | 0.933 | 1.02 | 0.869 | 1.11 | 1.05 | 0.913 | 1.03 | 0.792 | 0.977 | 0.929 | 0.369 | 0.954 | 1 | 1.05 | 1.05 | 0.995 | 1.33
12 | NCI-H441 | 0.565 | 1.01 | 1.11 | 0.278 | 1.11 | 0.971 | 1.15 | 1.13 | 0.644 | 1.22 | 0.868 | 1.13 | 0.791 | 0.307 | 1.09 | 0.92 | 1.2 | 1.29 | 0.801 | 0.664
13 | IA-LM | – | 0.763 | 0.641 | 0.185 | 1.07 | 1.11 | 1.24 | 0.964 | 0.292 | 1.03 | 0.848 | 0.923 | 0.152 | 0.0847 | 0.84 | 0.923 | 0.872 | 0.723 | 0.489 | 0.75
14 | HCC-366 | 1.06 | 1.27 | 1.06 | 0.63 | 0.991 | 1.04 | 0.988 | 0.937 | 0.748 | 1.02 | 0.816 | 1.02 | 0.983 | 0.411 | 1.03 | 1.03 | 1.07 | 1 | 0.938 | 1.12
15 | NCI-H520 | 1.19 | 1.05 | 1.06 | 0.829 | 0.798 | 0.729 | 0.895 | 0.741 | 0.484 | 1.24 | 0.952 | 1.16 | 0.917 | 0.64 | 0.99 | 0.975 | 1.03 | 1.04 | 0.813 | 1.2
16 | BEN | 0.0742 | 0.437 | 0.0692 | 0.0637 | 0.729 | 0.543 | 0.509 | 0.438 | 0.304 | 1.15 | 1.07 | 1.06 | 0.98 | 0.728 | 1.03 | 0.956 | 0.901 | 0.7 | 0.523 | 0.0618
